Data reported in article PMC8026479 (Cancer Chemotherapy and Pharmacology, 2021).

Experiments:
[1] = tested on: murine HSCs / total bone marrow cycling cells; set-up: method as in PMID 28446688; details: mouse, at concentrations giving maximum decrease in total bone marrow cycling cells; cited from earlier work
[2] = human, in vivo; cited from earlier work
CD45+/CD3+ lymphocytes = assay: Ex vivo PHA-stimulated lymphocyte proliferation assay (G1T28-1-01); type: in vivo; details: Homo sapiens, 96 mg/m2, 4 h after end of infusion, read-out: maximum mean inhibition of proliferation of CD45+/CD3+ lymphocytes
Method: Healthy male and/or female subjects aged 18–60 years, with a body weight of ≥ 50 kg and a body mass index of 18–32 kg/m^2, were enrolled. […] Following a 1-h exposure to EdU, cells were harvested, processed, and analyzed by flow cytometry to measure the percentage of proliferation through EdU + incorporation in CD45 + /CD3 + cells (T lymphocytes).
Two bone marrow samples (one pre-dose and one at 32 h post-dose) were excluded from analysis owing to contamination with peripheral blood. c Relative percentage of total bone marrow cells in the S phase at 24 and 32 h post-trilaciclib dose (n = 10). Data shown are mean ± standard deviation.

[3] = tested on: chemotherapy-induced myelosuppression in ES-SCLC patients; assay: Study G1T28-02 Part 1 DLTs and myelosuppression endpoints (with E/P); type: in vivo, human
Source text: G1T28-02 (NCT02499770) was a multicentre Phase Ib/IIa study in patients with newly diagnosed ES-SCLC [5]. Eligible patients were aged ≥ 18 years and had histologically or cytologically confirmed ES-SCLC, measurable disease per Response Evaluation Criteria in Solid Tumors (RECIST) version 1.1, an Eastern Cooperative Oncology Group (ECOG) performance status of 0–2, and adequate organ function. […] In the dose-finding Part 1 portion, blood samples for PK analysis were collected at prespecified time points on Cycle 1 Day 1 and Cycle 1 Day 3 (200 mg/m^2 cohort: all patients; 240 mg/m^2 cohort: optional).

[4] = tested on: total bone marrow cycling cells; set-up: method as in doi:10.1200/jco.2015.33.15_suppl.2529; details: dogs; cited from earlier work
[5] = G1T28-02 Part 1, 200 mg/m2 + E/P (n = 10)
[6] = G1T28-02 Part 1, 240 mg/m2 + E/P (n = 9)
[7] = G1T28-02 Part 1, trilaciclib total (n = 19)

**Q.** What does the source list for `CN1CCN(c2ccc(Nc3ncc4cc5n(c4n3)C3(CCCCC3)CNC5=O)nc2)CC1` [trilaciclib]?
**A.** HSPCs arrested in the G1 phase [1]: ~100%; most commonly reported AEs [2]: headache and nausea; severe AEs [2]: No severe AEs were reported; time to spontaneous resolution of all moderate AEs [2]: ≤ 24 h; inhibition at 96 mg/m2 (CD45+/CD3+ lymphocytes): 37.2%; DSN, median (SD) (footnote a) [3, 5]: 6 (5.7) days; Mean ANC Nadir in Cycle 1 [3, 5]: 1.198e+09 L⁻¹; Occurrence of ESA administrations [3, 5]: 2 (20.0) n (%); Occurrence of FN [3, 5]: 0 n (%); Occurrence of G-CSF administration [3, 5]: 5 (50.0) n (%); Occurrence of Grade 3 or 4 hematologic laboratory abnormalities [3, 5]: 4 (40.0) n (%); Occurrence of IV antibiotic use [3, 5]: 4 (40.0) n (%); Occurrence of RBC transfusions on/after Week 5 [3, 5]: 4 (40.0) n (%); Occurrence of SN [3, 5]: 4 (40) n (%); Occurrence of infection SAEs [3, 5]: 2 (20.0) n (%); Occurrence of platelet transfusions [3, 5]: 1 (10.0) n (%); Occurrence of pulmonary infection SAEs [3, 5]: 1 (10.0) n (%); Patients with any event for MAHE [3, 5]: 6 (60.0) n (%); Time to first MAHE, median [3, 5]: 2.6 months; DLTs reported ([3]; G1T28-02 Part 1, 200 mg/m2 + E/P, Grade 4 thrombocytopenia, and Grade 2 neutropenia resulting in Cycle 2 delay): Two DLTs; Mean ANC Nadir in Cycle 1 [3, 6]: 1.653e+09 L⁻¹; Occurrence of ESA administrations [3, 6]: 0 n (%); Occurrence of FN [3, 6]: 0 n (%); Occurrence of G-CSF administration [3, 6]: 3 (33.3) n (%); Occurrence of Grade 3 or 4 hematologic laboratory abnormalities [3, 6]: 1 (11.1) n (%); Occurrence of IV antibiotic use [3, 6]: 1 (11.1) n (%); Occurrence of RBC transfusions on/after Week 5 [3, 6]: 1 (11.1) n (%); Occurrence of SN [3, 6]: 0 n (%); Occurrence of infection SAEs [3, 6]: 1 (11.1) n (%); Occurrence of platelet transfusions [3, 6]: 0 n (%); Occurrence of pulmonary infection SAEs [3, 6]: 0 n (%); Patients with any event for MAHE [3, 6]: 6 (66.7) n (%); Time to first MAHE, median [3, 6]: 3.0 months; DLTs reported ([3]; G1T28-02 Part 1, 240 mg/m2 + E/P, Grade 2 neutropenia resulting in Cycle 2 delay): one; DSN, median (SD) (footnote a) [3, 7]: 6 (5.7) days; Mean ANC Nadir in Cycle 1 [3, 7]: 1.414e+09 L⁻¹; Occurrence of ESA administrations [3, 7]: 2 (10.5) n (%); Occurrence of FN [3, 7]: 0 n (%); Occurrence of G-CSF administration [3, 7]: 8 (42.1) n (%); Occurrence of Grade 3 or 4 hematologic laboratory abnormalities [3, 7]: 5 (26.3) n (%); Occurrence of IV antibiotic use [3, 7]: 5 (26.3) n (%); Occurrence of RBC transfusions on/after Week 5 [3, 7]: 5 (26.3) n (%); Occurrence of infection SAEs [3, 7]: 3 (15.8) n (%); Occurrence of platelet transfusions [3, 7]: 1 (5.3) n (%); Occurrence of pulmonary infection SAEs [3, 7]: 1 (5.3) n (%); Patients with any event for MAHE [3, 7]: 12 (63.2) n (%); Time to first MAHE, median [3, 7]: 2.6 months; maximum decrease from baseline in total bone marrow cycling cells [4]: ~ 50%
